Like-named read-outs stand apart in the source and are kept apart here.
What was measured:
[1] = biological target: T1, Human recombinant DHX9 protein (Homo sapiens, UniProt Q08211); assay: DHX9 ATPase assay (ADP-Glo biochemical assay); conditions: for DHX9 Biochemical Max Inhibition: maximum inhibition in ATPase assay, 10 μM Aurintricarboxylic acid = 100%
T1 construct: purchased Viva

[2] = tested on: DHX9 (circBRIP1 mRNA in HCT116 cells); assay: DHX9 circBRIP1 Cellular Target Engagement SYBR Green Assay; format: cell-based; conditions: 72 hours
[3] = read-out: DHX9 Biochemical Inflection Point
[4] = Homo sapiens, HCT-116, circBRIP1 qPCR

T1 sequence (Q08211 whole entry): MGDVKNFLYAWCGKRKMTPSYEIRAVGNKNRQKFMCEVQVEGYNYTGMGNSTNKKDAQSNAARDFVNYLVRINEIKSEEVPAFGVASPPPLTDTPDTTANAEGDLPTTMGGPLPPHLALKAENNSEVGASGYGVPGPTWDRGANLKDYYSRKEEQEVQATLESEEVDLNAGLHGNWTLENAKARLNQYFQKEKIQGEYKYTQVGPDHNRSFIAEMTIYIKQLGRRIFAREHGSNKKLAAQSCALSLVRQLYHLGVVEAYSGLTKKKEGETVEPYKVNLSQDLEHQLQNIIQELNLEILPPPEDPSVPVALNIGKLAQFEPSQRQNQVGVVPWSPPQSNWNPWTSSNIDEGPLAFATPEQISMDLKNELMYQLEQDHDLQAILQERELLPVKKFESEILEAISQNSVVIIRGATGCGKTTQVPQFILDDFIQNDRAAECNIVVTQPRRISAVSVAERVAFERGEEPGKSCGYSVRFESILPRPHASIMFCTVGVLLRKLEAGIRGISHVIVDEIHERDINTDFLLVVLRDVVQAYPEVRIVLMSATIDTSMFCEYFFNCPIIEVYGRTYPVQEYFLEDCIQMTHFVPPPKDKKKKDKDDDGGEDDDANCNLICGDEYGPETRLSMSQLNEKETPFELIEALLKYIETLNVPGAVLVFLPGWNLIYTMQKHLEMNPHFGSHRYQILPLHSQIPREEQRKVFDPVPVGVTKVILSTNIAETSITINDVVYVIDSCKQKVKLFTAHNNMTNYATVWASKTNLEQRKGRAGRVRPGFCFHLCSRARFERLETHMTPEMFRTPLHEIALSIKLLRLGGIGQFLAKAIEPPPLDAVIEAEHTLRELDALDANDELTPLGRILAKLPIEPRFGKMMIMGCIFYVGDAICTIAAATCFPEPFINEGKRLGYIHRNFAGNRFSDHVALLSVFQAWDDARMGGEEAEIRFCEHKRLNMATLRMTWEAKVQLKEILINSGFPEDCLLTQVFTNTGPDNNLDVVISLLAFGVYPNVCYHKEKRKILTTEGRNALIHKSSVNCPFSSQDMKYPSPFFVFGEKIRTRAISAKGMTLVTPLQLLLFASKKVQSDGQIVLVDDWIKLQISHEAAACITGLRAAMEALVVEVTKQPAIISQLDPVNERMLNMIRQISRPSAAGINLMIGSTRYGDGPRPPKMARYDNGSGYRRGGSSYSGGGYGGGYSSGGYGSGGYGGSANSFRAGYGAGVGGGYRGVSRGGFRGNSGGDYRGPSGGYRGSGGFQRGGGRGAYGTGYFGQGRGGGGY

Structure (SMILES)	DHX9 Biochemical Max Inhibition [1] [%]	IC50 [1, 3] [nM]	EC50 [2, 4] [nM]	IC50 [1] [nM]	IC50 ([1]; inflection point (IP) of four-parameter fit, reported instead of IC50, ATPase, dsRNA substrate, 1 h room temperature, read-out: DHX9 Biochemical Inflection Point) [nM]	EC50 ([2]; circBRIP1 qPCR) [nM]
COc1cccc(-c2csc(C(=O)Nc3cccc(NS(C)(=O)=O)c3)c2)c1 [Example 56]	68.2	148	21400	–	–	–
CS(=O)(=O)Nc1cccc(NC(=O)c2cc(-c3ccccc3O)cs2)c1 [Example 57]	70.7	41.9	25300	–	–	–
CS(=O)(=O)Nc1cccc(NC(=O)c2cc(-c3cccc(N)c3)cs2)c1 [Example 58]	69.2	55.8	3120	–	–	–
Cc1ncccc1-c1csc(C(=O)Nc2cccc(NS(C)(=O)=O)c2)c1 [Example 60]	69.2	76.6	10900	–	–	–
CS(=O)(=O)Nc1cccc(NC(=O)c2cc(-c3cncnc3)cs2)c1 [Example 62]	60.8	271	> 30000	–	–	–
CCOc1ncc(-c2csc(C(=O)Nc3cccc(NS(C)(=O)=O)c3)c2)cn1 [Example 63]	66.9	121	18800	–	–	–
Cc1ccc(-c2csc(C(=O)Nc3cccc(NS(C)(=O)=O)c3)c2)cn1 [Example 65]	66.9	41.8	8560	–	–	–
CS(=O)(=O)Nc1cccc(NC(=O)c2cc(-c3cccnn3)cs2)c1 [Example 66]	71.3	87.5	> 30000	–	–	–
CS(=O)(=O)Nc1cccc(NC(=O)c2cc(-c3ncccc3O)cs2)c1 [Example 69]	75.6	16.3	4790	–	–	–
CS(=O)(=O)Nc1cccc(NC(=O)c2cc(-c3c(O)cccc3F)cs2)c1 [Example 70]	71.2	32.2	4370	–	–	–
CC(C)(C)OC(=O)Nc1cccc(-c2csc(C(=O)Nc3cccc(NS(C)(=O)=O)c3)c2)c1 [Example 72]	64.4	494	> 30000	–	–	–
CS(=O)(=O)Nc1cccc(NC(=O)c2cc(-c3cccc(O)c3)cs2)c1 [Example 73]	63.7	109	6150	–	–	–
Cc1c(O)cccc1-c1csc(C(=O)Nc2cccc(NS(C)(=O)=O)c2)c1 [Example 74, 4-(3-hydroxy-2-methylphenyl)-N-(3-(methylsulfonamido)phenyl)thiophene-2-carboxamide]	71.4	80.6	≥ 30000	–	–	–
Cc1ccc(O)cc1-c1csc(C(=O)Nc2cccc(NS(C)(=O)=O)c2)c1 [Example 75]	70.1	82.1	8280	–	–	–
CS(=O)(=O)Nc1cccc(NC(=O)c2cc(-c3ccccc3OCc3ccccc3)cs2)c1 [Example 77]	72.3	89.4	2040	–	–	–
Cn1nc(C(=O)Nc2cccc(NS(C)(=O)=O)c2)cc1-c1ccc(O)cc1 [Example 79]	71.2	467	> 30000	–	–	–
CS(=O)(=O)Nc1cccc(NC(=O)c2cc(-c3ccccn3)n[nH]2)c1 [Example 81]	68.3	1070	> 30000	–	–	–
Cc1cccnc1-c1csc(C(=O)Nc2cccc(NS(C)(=O)=O)c2)c1 [Example 83]	73.1	17.3	917	–	–	–
CS(=O)(=O)Nc1cccc(NC(=O)c2cc(-c3ncccn3)cs2)c1 [Example 84]	71.4	12.5	4840	–	–	–
CS(=O)(=O)Nc1cccc(NC(=O)c2cc(-c3cccc(N)n3)cs2)c1 [Example 85]	70.7	19.5	1390	–	–	–

Structure (SMILES)	DHX9 Biochemical Max Inhibition [1] [%]	IC50 [1, 3] [nM]	EC50 [2, 4] [nM]	IC50 [1] [nM]	IC50 ([1]; inflection point (IP) of four-parameter fit, reported instead of IC50, ATPase, dsRNA substrate, 1 h room temperature, read-out: DHX9 Biochemical Inflection Point) [nM]	EC50 ([2]; circBRIP1 qPCR) [nM]
CS(=O)(=O)Nc1cccc(NC(=O)c2cc(-c3cc(N)ccn3)cs2)c1 [Example 86]	71.1	45.3	19500	–	–	–
CS(=O)(=O)Nc1cccc(NC(=O)c2cc(-c3cc(C(=O)O)ccn3)cs2)c1 [Example 87]	77.2	22.6	≥ 30000	–	–	–
CS(=O)(=O)Nc1cccc(NC(=O)c2cc(-c3ccccc3N)cs2)c1 [Example 88]	68.2	65.4	10500	–	–	–
CS(=O)(=O)Nc1cccc(NC(=O)c2cc(-c3ncccc3N)cs2)c1 [Example 89]	76.4	9.7	1030	–	–	–
CS(=O)(=O)Nc1cccc(NC(=O)c2nc(-c3ccccn3)c[nH]2)c1 [Example 90]	61.2	19000	> 30000	–	–	–
CS(=O)(=O)Nc1cccc(NC(=O)c2cc(-c3ccc(N4CCNCC4)cn3)cs2)c1 [Example 91, N-(3-(methylsulfonamido)phenyl)-4-(5-(piperazin-1-yl)pyridin-2-yl)thiophene-2-carboxamide]	74.6	7.2	7630	–	–	–
CS(=O)(=O)Nc1cccc(NC(=O)c2cc(-c3cc(C(N)=O)ccn3)cs2)c1 [Example 92]	75.5	55.4	> 30000	–	–	–
CC(=O)Nc1ccccc1-c1csc(C(=O)Nc2cccc(NS(C)(=O)=O)c2)c1 [Example 93, 4-(2-acetamidophenyl)-N-(3-(methylsulfonamido)phenyl)thiophene-2-carboxamide]	74	39.9	11500	–	–	–
CC(=O)Nc1cccnc1-c1csc(C(=O)Nc2cccc(NS(C)(=O)=O)c2)c1 [Example 94]	71.2	125	> 30000	–	–	–
CC(=O)N1CCN(c2ccc(-c3csc(C(=O)Nc4cccc(NS(C)(=O)=O)c4)c3)nc2)CC1 [Example 95]	73.1	7.6	> 30000	–	–	–
CCS(=O)(=O)Nc1cccc(NC(=O)c2cc(-c3ccccc3)cs2)c1 [Example 96, N-(3-(ethylsulfonamido)phenyl)-4-phenylthiophene-2-carboxamide]	59.6	89.9	22200	–	–	–
CCS(=O)(=O)Nc1cccc(NC(=O)c2cc(-c3ccccn3)cs2)c1 [Example 97]	70	24.7	4320	–	–	–
CS(=O)(=O)Nc1cccc(NC(=O)c2cc(-c3ccccc3)c(C(F)(F)F)s2)c1 [Example 99, N-(3-(methylsulfonamido)phenyl)-4-phenyl-5-(trifluoromethyl)thiophene-2-carboxamide]	35.8	716	> 30000	–	–	–
CS(=O)(=O)Nc1cccc(NC(=O)c2cc(-c3ccccc3)c(C#N)s2)c1 [Example 100, 5-cyano-N-(3-(methylsulfonamido)phenyl)-4-phenylthiophene-2-carboxamide]	65.8	333	28500	–	–	–
CS(=O)(=O)Nc1cccc(NC(=O)c2cc(C(=O)Nc3ccccc3)cs2)c1 [Example 102, N2-(3-(methylsulfonamido)phenyl)-N4-phenylthiophene-2,4-dicarboxamide]	72.5	–	18900	159	–	–
CNC(=O)c1sc(C(=O)Nc2cccc(NS(C)(=O)=O)c2)cc1-c1ccccc1 [Example 152]	69.7	123	16600	–	–	–
CS(=O)(=O)Nc1cccc(NC(=O)c2cc(-c3ccccc3)c(CO)s2)c1 [Example 153, 5-(hydroxymethyl)-N-(3-(methylsulfonamido)phenyl)-4-phenylthiophene-2-carboxamide]	77.9	43.2	5910	–	–	–
CS(=N)(=O)Nc1cccc(NC(=O)c2cc(-c3ccccc3)cs2)c1 (stereo not drawn) [Example 157, N-(3-(methylsulfonoamidimidamido)phenyl)-4-phenylthiophene-2-carboxamide]	68.6	–	–	–	205	> 30000
CS(=O)(=O)Nc1cc(C=O)cc(NC(=O)c2cc(-c3ccccc3)cs2)c1 [Example 159, N-(3-formyl-5-(methylsulfonamido)phenyl)-4-phenylthiophene-2-carboxamide]	50.7	690	> 10000	–	–	–

Reference: patent US20250179013A1, “INHIBITORS OF RNA HELICASE DHX9 AND USES THEREOF” (ACCENT THERAPEUTICS, INC., priority 2022, published 2025)
